This is an account of results in patent publication US10022451B2, “Encapsulated agents and methods of making and using thereof” (University of Georgia Research Foundation, Inc., priority 2014, dated 2018).

The conditions of series [1]: in tetrahydrofuran; cited from earlier work.
Series [2] in a line: Stability of P-RFRTs in PBS and at pH 2. The class given is physicochemical. Conditions: same concentration.

As to “zinc hexadecafluoro-phthalocyanine [ZnF16Pc]”, the ΦΔ in series [1] is 0.85. For the same substance, in series [2], the “Stability in PBS” value is listed as “quickly precipitated out due to its poor solubility”.
